This data set can be described thus: Solubility in water. Type of data set: physicochemical. The text has this:
In order to solubilize it in water, the present inventors have conjugated it with amphiphilic polyethylene glycol (PEG) having an average molecular weight of 100-20,000 (preferably about 5,000) (patent document 2) to create a water-soluble derivative thereof.

The structures appear in SMILES notation.

As to `C=CC1=C(C)c2cc3[n-]c(cc4nc(cc5[n-]c(cc1n2)c(C)c5C=C)C(C)=C4CCC(=O)O)c(CCC(=O)O)c3C.[Zn+2]` [ZnPP, zinc-protoporphyrin], the solubility in water entry is reported as “insoluble in water”.
